The values below come from ChEMBL document CHEMBL1121905, “erythro-5-[1-Hydroxy-2-(isopropylamino)butyl]-7-hydroxycarbostyril, a terbutaline-type derivative of the bronchodilator procaterol” (1981).

What is called ED50 is the dose at which the effect has come halfway, by size or by number of responders. Higher therefore signals weaker potency.

pEC50: −log10 of the molar value.

For experiment [1], the species on record is Cavia porcellus. Put plainly: Intrinsic activity (n=5) in guinea pig right atrium.
The species entered for experiment [2] is Cavia porcellus. Put plainly: Intrinsic activity in guinea pig trachea. In kind it is functional.
The species entered for experiment [3] is Cavia porcellus. Put plainly: Compound was tested for effective dose required for 25% of maximum response in guinea pig right atrium.
The species entered for experiment [4] is Cavia porcellus. Description: Compound was tested for effective dose required for 50% of maximum response in guinea pig trachea. In kind it is functional. The note with it: read-out: ED50 (the source's name).
Experiment [5] deals with Canis familiaris. Put plainly: Compound was tested in anesthetized dogs for increase in heart rate (equipotent dose at ED25) Mean ED25 value, obtained at a dose of 0.021 ug/kg. The note with it: Canis lupus familiaris. In kind it is functional.
The test system of experiment [6] is Canis familiaris. Description: Compound was tested in anesthetized dogs for inhibition of bronchoconstriction (equipotent dose at ED50) Mean ED50 value, obtained at a dose of 0.054 ug/kg. It is filed as functional. The note with it: Canis lupus familiaris, Lung.
The species entered for experiment [7] is Cavia porcellus. Put plainly: Compound was tested for effective dose required for 25% of maximum response in guinea pig right atrium; maximal activity was obtained at 1 x 10 e-5 mol/L.

Turning to `CCC(NC(C)C)C(O)c1cc(O)cc2c1CCC(=O)N2` (configuration not stated), the figures for the Intrinsic activity in the experiment listed under Cavia porcellus [1] and in the experiment listed under Cavia porcellus [2] were 0.27 and 0.6, respectively. This compound also gave an ED25 in the experiment listed under Cavia porcellus [3] of 566 nM. Besides, the pEC50 in the experiment filed under Cavia porcellus [4] is 5.91.

Regarding `CC(C)NCC(O)c1ccc(O)c(O)c1` (configuration not stated) [ISOPROTERENOL], in the experiment with Canis familiaris [5], the ED25 amounted to 0.001 mg/kg. The 50% effective dose (ED50) with Canis familiaris [6] was 0.001 mg/kg.

For `CCC(NC(C)C)C(O)c1ccc(O)c2[nH]c(=O)ccc12` (configuration not stated) [PROCATEROL], the Intrinsic activity is given as 0.6 in the experiment filed under Cavia porcellus [1] and 0.98 in the experiment filed under Cavia porcellus [2]. This compound registered an ED25 in the experiment filed under Cavia porcellus [3] of 5.7 nM. Further, the pEC50 in the experiment filed under Cavia porcellus [4] was 7.96.

Regarding `CCC(NC(C)C)C(O)c1cc(O)cc2nc(O)ccc12` (configuration not stated), the Intrinsic activity in the experiment listed under Cavia porcellus [2] was 0.5. Besides, the ED25 in the experiment on Canis familiaris [5] is 0.0871 mg/kg; in the experiment filed under Cavia porcellus [7], “maximal activity was obtained at 1 x 10 e-5 mol/L”. In the experiment on Canis familiaris [6], this compound returned an ED50 of 0.0417 mg/kg. Moreover, the pEC50 in the experiment listed under Cavia porcellus [4] is 6.65.

Regarding `CC(C)(C)NCC(O)c1cc(O)cc(O)c1` (configuration not stated) [TERBUTALINE], the Intrinsic activity in the experiment listed under Cavia porcellus [1] was 0.73; in the experiment filed under Cavia porcellus [2], 0.7.
